Results taken from US12516026B2, “Cabozantinib compositions and methods of use” (priority 2023, dated 2026).

What was measured:
[1] = Example 25: impurity profile of cabozantinib lauryl sulfate lots stored at 40° C. and 75% relative humidity; format: physicochemical; conditions: 40° C./75% RH
[2] = single dose, healthy human subjects, cited from earlier work

| Compound | Related Substance 1 Int2-Imp1 ([1]; 0 months) [%] | Related Substance 1 Int3-Imp5 ([1]; 0 months) [%] | Related Substance 1 Total imp. ([1]; 0 months) [%] | Related Substance 1 Unidentified imp ([1]; 0 months) [%] | Related Substance 2 Int1 ([1]; 0 months) [ppm] | Water Content ([1]; 0 months) [%] | Related Substance 1 Int2-Imp1 ([1]; 1 month) [%] | Related Substance 1 Int3-Imp5 ([1]; 1 month) [%] | Related Substance 1 Total imp. ([1]; 1 month) [%] | Related Substance 2 Int1 ([1]; 1 month) [ppm] | Related Substance 1 Int2-Imp1 ([1]; 3 months) [%] | Related Substance 1 Int3-Imp5 ([1]; 3 months) [%] | Related Substance 1 Total imp. ([1]; 3 months) [%] | Related Substance 2 Int1 ([1]; 3 months) [ppm] | Water Content ([1]; 3 months) [%] | also measured |
| --- | --- | --- | --- | --- | --- | --- | --- | --- | --- | --- | --- | --- | --- | --- | --- | --- |
| CCCCCCCCCCCCOS(=O)(=O)O.COc1cc2nccc(Oc3ccc(NC(=O)C4(C(=O)Nc5ccc(F)cc5)CC4)cc3)c2cc1OC [Example 25B, cabozantinib lauryl sulfate] | 0.12 | <0.05 | 0.20 | 0.06 | 2.77 | 0.19 | 0.07 | <0.05 | 0.09 | 6.28 | 0.06 | <0.05 | 0.11 | 6.50 | 0.10 | Related Substance 1 Int3-Imp2 ([1]; 3 months): <0.05%; Related Substance 1 Int2-Imp1 ([1]; 6 months): 0.10%; Related Substance 1 Int3-Imp5 ([1]; 6 months): <0.05%; Related Substance 1 Int3-Imp7 ([1]; 6 months): <0.05%; Related Substance 1 Total imp. ([1]; 6 months): 0.10%; Related Substance 1 Unidentified imp ([1]; 6 months): <0.05%; Related Substance 2 Int1 ([1]; 6 months): 7.34 ppm |
| CCCCCCCCCCCCOS(=O)(=O)O.COc1cc2nccc(Oc3ccc(NC(=O)C4(C(=O)Nc5ccc(F)cc5)CC4)cc3)c2cc1OC [Example 25C, cabozantinib lauryl sulfate] | 0.10 | 0.05 | 0.24 | <0.05 | 5.22 | 0.31 | 0.11 | <0.05 | 0.24 | 5.98 | 0.13 | <0.05 | 0.29 | 6.99 | 0.05 | Related Substance 1 Int3-Imp7 ([1]; 0 months): <0.05%; Related Substance 1 Int3-Imp7 ([1]; 1 month): 0.05%; Related Substance 1 Unidentified imp ([1]; 1 month): <0.05%; Water Content ([1]; 1 month): 0.29%; Related Substance 1 Int2-Imp1 ([1]; 2 months): 0.13%; Related Substance 1 Int3-Imp5 ([1]; 2 months): <0.05%; Related Substance 1 Int3-Imp7 ([1]; 2 months): <0.05%; Related Substance 1 Total imp. ([1]; 2 months): 0.21%; Related Substance 2 Int1 ([1]; 2 months): 6.07 ppm; Water Content ([1]; 2 months): 0.068%; Related Substance 1 Int3-Imp7 ([1]; 3 months): <0.05%; Related Substance 1 Unidentified imp ([1]; 3 months): <0.05% |
| ^14C-cabozantinib | – | – | – | – | – | – | – | – | – | – | – | – | – | – | – | radioactivity recovered in feces ([2]; 48-day collection period): approximately 54%; radioactivity recovered in urine ([2]; 48-day collection period): ~27%; total administered radioactivity recovered ([2]; within a 48-day collection period): approximately 81% |
